Measured values as given in ChEMBL document CHEMBL1909046, “DrugMatrix in vitro pharmacology data”.

Legend:
[1] = biological target: C-C chemokine receptor type 2 (Homo sapiens, UniProt P41597); type: cell membranes, CHO-K1, Membrane; note: in other assays of this panel Not Active means under 50% inhibition at 10 µM
[2] = biological target: T1, C-X-C chemokine receptor type 1 (Homo sapiens, UniProt P25024); note: in other assays of this panel Not Active means under 50% inhibition at 10 µM
T1 sequence (P25024 whole entry): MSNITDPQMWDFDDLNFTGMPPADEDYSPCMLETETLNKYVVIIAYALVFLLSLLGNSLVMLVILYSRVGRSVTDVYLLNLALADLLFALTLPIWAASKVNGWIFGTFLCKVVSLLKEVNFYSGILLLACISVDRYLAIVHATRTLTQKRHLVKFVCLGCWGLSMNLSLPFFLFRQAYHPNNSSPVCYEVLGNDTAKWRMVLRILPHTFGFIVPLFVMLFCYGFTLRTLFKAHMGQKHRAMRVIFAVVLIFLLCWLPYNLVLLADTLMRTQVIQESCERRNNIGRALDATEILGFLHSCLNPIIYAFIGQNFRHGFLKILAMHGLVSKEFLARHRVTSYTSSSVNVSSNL

[3] = biological target: T2, Polyunsaturated fatty acid lipoxygenase ALOX15 (Oryctolagus cuniculus, UniProt P12530); experiment: biochemical; type: tissue-based, Reticulocytes;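 note: inhibition of 15-lipoxygenase enzyme activity measured with linoleic acid as the substrate; in other assays of this panel Not Active means under 50% inhibition at 10 µM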
T2 sequence (P12530 whole entry): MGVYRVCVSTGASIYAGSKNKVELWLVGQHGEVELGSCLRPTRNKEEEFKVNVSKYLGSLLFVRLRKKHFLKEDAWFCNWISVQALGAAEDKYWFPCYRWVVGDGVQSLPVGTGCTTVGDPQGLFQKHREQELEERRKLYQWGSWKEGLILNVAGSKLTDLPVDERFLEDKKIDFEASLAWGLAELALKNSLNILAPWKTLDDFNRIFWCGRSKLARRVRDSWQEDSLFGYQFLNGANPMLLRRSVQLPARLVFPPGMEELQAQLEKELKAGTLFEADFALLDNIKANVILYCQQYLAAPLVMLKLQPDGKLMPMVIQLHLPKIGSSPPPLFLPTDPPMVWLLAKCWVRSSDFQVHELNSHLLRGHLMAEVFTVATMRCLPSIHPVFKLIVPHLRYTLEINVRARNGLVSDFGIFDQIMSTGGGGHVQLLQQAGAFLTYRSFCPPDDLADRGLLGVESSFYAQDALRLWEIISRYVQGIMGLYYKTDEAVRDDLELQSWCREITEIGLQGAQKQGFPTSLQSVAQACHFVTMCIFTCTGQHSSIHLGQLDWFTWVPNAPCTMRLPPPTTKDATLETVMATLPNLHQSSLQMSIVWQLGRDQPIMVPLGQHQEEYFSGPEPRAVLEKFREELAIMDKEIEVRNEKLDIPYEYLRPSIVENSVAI

[4] = biological target: Melanocortin receptor 4 (Homo sapiens, UniProt P32245); type: cell membranes, Membrane; conditions: hek293; note: in other assays of this panel Not Active means under 50% inhibition at 10 µM
[5] = biological target: T3, Neuropeptide Y receptor type 1 (Homo sapiens, UniProt P25929); type: cell membranes, Membrane; conditions: sk-n-mc; note: in other assays of this panel Not Active means under 50% inhibition at 10 µM
T3 sequence (P25929 whole entry): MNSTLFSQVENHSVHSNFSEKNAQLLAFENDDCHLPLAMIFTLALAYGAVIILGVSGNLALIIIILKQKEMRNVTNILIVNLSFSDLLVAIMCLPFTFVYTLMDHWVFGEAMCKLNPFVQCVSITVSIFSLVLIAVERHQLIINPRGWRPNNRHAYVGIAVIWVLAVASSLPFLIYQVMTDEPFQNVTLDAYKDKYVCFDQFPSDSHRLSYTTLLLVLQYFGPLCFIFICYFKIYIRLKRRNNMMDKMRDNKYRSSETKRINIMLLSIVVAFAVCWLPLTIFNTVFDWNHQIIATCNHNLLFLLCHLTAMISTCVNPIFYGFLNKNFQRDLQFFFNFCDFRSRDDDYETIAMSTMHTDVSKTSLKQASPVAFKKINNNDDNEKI

[6] = DRUGMATRIX: Phosphodiesterase PDE4 enzyme inhibition (substrate: [3H]cAMP + cAMP); conditions: u-937; Not Active = under 50% inhibition at 10 µM
[7] = biological target: T4, Adenosine receptor A3 (Homo sapiens, UniProt P0DMS8); type: cell membranes, CHO-K1, Membrane
T4 sequence (P0DMS8 whole entry): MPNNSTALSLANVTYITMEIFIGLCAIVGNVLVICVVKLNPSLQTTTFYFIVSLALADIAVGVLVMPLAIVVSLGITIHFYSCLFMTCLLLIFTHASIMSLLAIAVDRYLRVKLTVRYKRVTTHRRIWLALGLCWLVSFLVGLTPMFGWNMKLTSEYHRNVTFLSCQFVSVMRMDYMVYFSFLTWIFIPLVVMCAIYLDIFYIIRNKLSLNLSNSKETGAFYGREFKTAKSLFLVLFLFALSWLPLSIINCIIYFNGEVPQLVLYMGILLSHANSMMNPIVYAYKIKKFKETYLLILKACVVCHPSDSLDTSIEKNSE

C-C chemokine receptor type 2, sequence (P41597 whole entry): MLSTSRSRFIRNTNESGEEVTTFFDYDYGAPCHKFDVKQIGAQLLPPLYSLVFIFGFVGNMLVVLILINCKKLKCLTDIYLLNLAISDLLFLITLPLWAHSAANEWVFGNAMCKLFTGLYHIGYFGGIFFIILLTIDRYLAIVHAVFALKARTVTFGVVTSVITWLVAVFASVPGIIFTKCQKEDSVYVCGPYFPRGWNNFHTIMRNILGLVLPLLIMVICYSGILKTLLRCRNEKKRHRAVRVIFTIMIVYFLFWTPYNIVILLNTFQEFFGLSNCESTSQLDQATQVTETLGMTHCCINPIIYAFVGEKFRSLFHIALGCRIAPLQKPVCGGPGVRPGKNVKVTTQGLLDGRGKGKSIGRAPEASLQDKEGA
Melanocortin receptor 4, sequence (P32245 whole entry): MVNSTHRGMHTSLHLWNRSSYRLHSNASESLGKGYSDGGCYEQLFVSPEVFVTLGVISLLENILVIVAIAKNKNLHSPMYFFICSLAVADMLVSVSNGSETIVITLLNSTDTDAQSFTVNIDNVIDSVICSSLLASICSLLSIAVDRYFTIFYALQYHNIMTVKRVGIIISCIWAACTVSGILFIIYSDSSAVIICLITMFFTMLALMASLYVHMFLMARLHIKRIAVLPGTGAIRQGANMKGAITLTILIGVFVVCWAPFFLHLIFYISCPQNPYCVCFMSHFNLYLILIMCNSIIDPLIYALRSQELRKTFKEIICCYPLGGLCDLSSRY

Compound	IC50 ([1]; cho-k1)	IC50 [2]	IC50 ([3]; reticulocytes)	IC50 [4]	IC50 [5]	IC50 [6]	Ki [6]	IC50 ([7]; cho-k1)	Ki ([1]; cho-k1)	Ki [2]	Ki ([3]; reticulocytes)	Ki [4]	Ki [5]	Ki ([7]; cho-k1)	IC50 ([3]; read-out: IC50) [nM]	IC50 ([1]; read-out: IC50) [nM]	Ki ([1]; read-out: Ki) [nM]	IC50 ([7]; read-out: IC50) [nM]	Ki ([7]; read-out: Ki) [nM]
CO[C@H]1O[C@@H]2O[C@@]3(C)CC[C@H]4[C@H](C)CC[C@@H]([C@H]1C)[C@@]24OO3	Not Active	Not Active	Not Active	Not Active	Not Active	Not Active	Not Active	Not Active											
O=c1[nH]c2ccccc2c2ccccc12	Not Active	Not Active	Not Active	Not Active	Not Active	Not Active	Not Active	Not Active											
COc1ccc(C[C@H](N)C(=O)N[C@H]2[C@@H](O)[C@H](n3cnc4c(N(C)C)ncnc43)O[C@@H]2CO)cc1 [PUROMYCIN]	Not Active	Not Active	Not Active	Not Active	Not Active	Not Active	Not Active	Not Active											
CHROMIC CHLORIDE	Not Active	Not Active	Not Active	Not Active	Not Active	Not Active	Not Active	Not Active	Not Active	Not Active	Not Active	Not Active	Not Active	Not Active					
C[C@@H]1[C@H](O)[C@@H](C)/C=C/C=C/C=C/C=C/C=C/C=C/C=C/[C@H](O[C@@H]2O[C@H](C)[C@@H](O)[C@H](N)[C@@H]2O)C[C@@H]2O[C@](O)(C[C@@H](O)C[C@@H](O)[C@H](O)CC[C@@H](O)C[C@@H](O)CC(=O)O[C@H]1C)C[C@H](O)[C@H]2C(=O)O [AMPHOTERICIN B]	Not Active	Not Active	Not Active	Not Active	Not Active	Not Active	Not Active	Not Active											
Cc1c(N)nc([C@H](CC(N)=O)NC[C@H](N)C(N)=O)nc1C(=O)N[C@H](C(=O)N[C@H](C)[C@@H](O)[C@H](C)C(=O)N[C@H](C(=O)NCCc1nc(-c2nc(C(=O)NCCC[S+](C)C)cs2)cs1)[C@@H](C)O)[C@@H](O[C@@H]1O[C@@H](CO)[C@@H](O)[C@H](O)[C@@H]1O[C@H]1O[C@H](CO)[C@@H](O)[C@H](OC(N)=O)[C@@H]1O)c1c[nH]cn1.[Br-] [BLEOMYCIN A2]	Not Active	Not Active	Not Active	Not Active	Not Active	Not Active	Not Active	Not Active											
O=C(O)CNCP(=O)(O)O [GLYPHOSATE]	Not Active	Not Active	Not Active	Not Active	Not Active	Not Active	Not Active	Not Active											
Nc1nc(F)nc2c1ncn2[C@@H]1O[C@H](CO)[C@@H](O)[C@@H]1O [FLUDARABINE]	Not Active	Not Active	Not Active	Not Active	Not Active	Not Active	Not Active	Not Active											
NCC(CC(=O)O)c1ccc(Cl)cc1 (centres undefined) [BACLOFEN]	Not Active	Not Active	Not Active	Not Active	Not Active	Not Active	Not Active	Not Active											
O=C(Nc1ccc(Cl)c(Cl)c1)c1cc(Cl)cc(Cl)c1O [3,3',4',5-TETRACHLOROSALICYLANILIDE]	Not Active	Not Active	Not Active	Not Active	Not Active	Not Active	Not Active	Not Active											
Oc1ccccc1 [PHENOL]	Not Active	Not Active	Not Active	Not Active	Not Active	Not Active	Not Active	Not Active											
CC(C)NCC(O)COc1ccc(CC(N)=O)cc1 (centres undefined) [ATENOLOL]	Not Active	Not Active	Not Active	Not Active	Not Active	Not Active	Not Active	Not Active											
CNC[C@H](O)c1ccc(O)c(O)c1 [EPINEPHRINE]	Not Active	Not Active		Not Active	Not Active	Not Active	Not Active	Not Active							3280				
CN(Cc1cc(Br)cc(Br)c1N)C1CCCCC1 [BROMHEXINE]	Not Active	Not Active	Not Active	Not Active	Not Active	Not Active	Not Active	Not Active											
CC(C)Cc1ccc([C@H](C)C(=O)O)cc1 [DEXIBUPROFEN]	Not Active	Not Active	Not Active	Not Active	Not Active	Not Active	Not Active	Not Active											
CC(C)Cn1cnc2c(N)nc3ccccc3c21 [IMIQUIMOD]	Not Active	Not Active	Not Active	Not Active	Not Active	Not Active	Not Active	Not Active											
CC(C)(C#N)c1cc(Cn2cncn2)cc(C(C)(C)C#N)c1 [ANASTROZOLE]	Not Active	Not Active	Not Active	Not Active	Not Active	Not Active	Not Active	Not Active											
POVIDONE	Not Active	Not Active	Not Active	Not Active	Not Active	Not Active	Not Active	Not Active	Not Active	Not Active	Not Active	Not Active	Not Active	Not Active					
COc1ccccc1OCCNCC(O)COc1cccc2[nH]c3ccccc3c12 (centres undefined) [CARVEDILOL]	Not Active	Not Active	Not Active	Not Active	Not Active	Not Active	Not Active	Not Active											
Nc1ccc(Cc2ccc(N)cc2)cc1	Not Active	Not Active	Not Active	Not Active	Not Active	Not Active	Not Active	Not Active											
CARBOXYMETHYLCELLULOSE	Not Active	Not Active	Not Active	Not Active	Not Active	Not Active	Not Active	Not Active	Not Active	Not Active	Not Active	Not Active	Not Active	Not Active					
c1ccc2sc(SSc3nc4ccccc4s3)nc2c1 [BENZOTHIAZYL DISULFIDE]		Not Active	Not Active	Not Active	Not Active	Not Active	Not Active									2410	929	347	196
O=C1c2ccccc2C(=O)C1c1ccccc1 [PHENINDIONE]	Not Active	Not Active	Not Active	Not Active	Not Active	Not Active	Not Active	Not Active											
